For this experiment, the system named is Orobanche ramosa L. In words: Germination inducer activity in Orobanche ramosa L. (germination rate of seeds). The format is in vivo. As for the experimental part: In this Example, the germination inducer activity of Compound 1 on Orobanche ramosa L. was analyzed by measuring the germination rate. Orobanche ramosa L. is a parasitic plant of tomato, which is now classified as Phelipanche ramosa (L.) Pomel. The Orobanche ramosa L. used herein is a species that parasitizes tomatoes native to Portugal. Dried seeds of Orobanche ramosa L. were conditioned for one week in water from 20° C. to 26° C. in a dark and humid place. The compounds to be tested were each added in an amount of 2 mL to a Petri dish so as to give a final concentration of 1 μM or 100 nM (Compound 1), or 0.34 μM (GR24). After incubation from 20° C. to 26° C. in a dark and humid place for 1 week after the addition of the treatment solution, the germination rate was evaluated by counting the number of germinated seeds under a stereomicroscope.
In the table, “Germination” indicates the germination inducer activity of Compound 1. When the relative value of the germination rate was 4% or more, Compound 1 was marked with (+).

In the case of `COC(=O)[C@H](CCCCNC(=O)OC1C=C(C)C(=O)O1)NC(=O)OC(C)(C)C` (some centres unmarked) [Compound 1], the “germination inducer activity for Orobanche ramosa L.” value (1 μM or 100 nM) is “exhibited germination inducer activity”. In addition, under “Compound 1 at 1 μM or 100 nM, 20° C. to 26° C., dark, 1 week”, the Germination entry is reported as “+ (When the relative value of the germination rate was 4% or more, Compound 1 was marked with (+))”.

The record behind these values is patent US20250031699A1, “Method for Controlling Parasitic Plants” (AJINOMOTO CO., INC., priority 2022, published 2025).
